The values below come from publication PMC8308625, “Preclinical Studies in Anti-Trypanosomatidae Drug Development” (Pharmaceuticals, 2021).

Like-named read-outs stand apart in the source and are kept apart here.

The test system of data set [1] is Leishmania donovani (amastigotes). To be noted: cited from earlier work.
A further data set concerns P. falciparum. The conditions noted are these: cited from earlier work.
For a further data set, the system named is T. b. brucei. To be noted: ref Duffy et al., 2017; read-out: EC50 T. brucei brucei; cited from earlier work.
The subject of data set [2] is hepatocellular carcinoma (HepG2) cell line. To be noted: cited from earlier work.
Data set [3] concerns L. infantum reference strain (MHOM/BR/2002/LPC-RPV). The data set is described as follows: Growth inhibition of L. infantum reference strain promastigotes (resazurin). The conditions noted are these: for Selectivity Index MΦ/Reference: EC50 J774.1 macrophages versus L. infantum reference strain; for EC50: Leishmania infantum. Background: Resazurin is reduced to fluorescent resorufin, in cell work by metabolically active cells.

A short description of data set [4]: Nonspecific cytotoxicity in murine macrophages (MTT). The conditions noted are these: mouse, J774.1 murine macrophages.
Protocol: (§1) Cell viability was then assessed using the 3-(4,5-dimethylthiazol-2-yl)-2,5-diphenyltetrazolium bromide (MTT) colorimetric assay [1]. […] All assays were performed in triplicate [35].
The test system of data set [5] is L. infantum veterinary isolate (MCAN_UY_2015_gPL8). The data set is described as follows: Growth inhibition of L. infantum veterinary isolate promastigotes (resazurin). The conditions noted are these: for Selectivity Index MΦ/Veterinary: EC50 J774.1 macrophages versus L. infantum veterinary isolate; for EC50: Leishmania infantum; for Selectivity Index MΦ/Lin–Vet: EC50 mammalian cell line/EC50 L. infantum veterinary isolate.

Data set [6] deals with T. cruzi. Further details: method as in Duffy et al., 2017. The conditions noted are these: ref Duffy et al., 2017; cited from earlier work.
Data set [7] addresses Sphingosine-1-phosphate receptor 4. Further details: method as in pubchem.ncbi.nlm.nih.gov. The conditions noted are these: ref pubchem.ncbi.nlm.nih.gov; cited from earlier work.
In data set [8] the target is Neuropeptide S receptor isoform A. Further details: method as in pubchem.ncbi.nlm.nih.gov. The conditions noted are these: ref pubchem.ncbi.nlm.nih.gov; cited from earlier work.
Another data set deals with C. albicans. The arrangement: method as in pubchem.ncbi.nlm.nih.gov. To be noted: ref pubchem.ncbi.nlm.nih.gov; read-out: EC50 C. albicans Growth in the Presence of Fluconazole; cited from earlier work.
Details of data set [9]: method as in data provided by the DNDi program, non-published. The conditions noted are these: ref data provided by the DNDi program, non-published; cited from earlier work.
Data set [10] concerns the target Aldehyde dehydrogenase 1 family, member A1. The arrangement: method as in pubchem.ncbi.nlm.nih.gov. The conditions noted are these: ref pubchem.ncbi.nlm.nih.gov; cited from earlier work.
The next data set addresses Replicative DNA helicase. Further details: method as in pubchem.ncbi.nlm.nih.gov. To be noted: ref pubchem.ncbi.nlm.nih.gov; cited from earlier work.
The subject of data set [11] is Cell division cycle 42 (GTP binding protein, 25kDa). The arrangement: method as in pubchem.ncbi.nlm.nih.gov. The conditions noted are these: ref pubchem.ncbi.nlm.nih.gov; cited from earlier work.
Another data set relates to Hsf1 protein. The arrangement: method as in pubchem.ncbi.nlm.nih.gov. To be noted: ref pubchem.ncbi.nlm.nih.gov; cited from earlier work.
Data set [12] deals with L. amazonensis. The data set is described as follows: Murine model of cutaneous Leishmaniasis. The conditions noted are these: BALB/c mice, oral, when treatment begins (Figure 2C).
Protocol: For the in vivo model of cutaneous disease, 1 × 10^7 amastigote parasites of L. amazonensis PH8 were inoculated in the upper part of the left paw of the mice. […] The mice were sacrificed 30 days post-infection. The antiparasitic effect was evaluated by two methods: the weekly evolution of the diameter of the infected paw throughout the experiment (Figure 2C) and the quantification of the parasite load in the infected area at the end of the experiment (Figure 2A).
Golden hamsters (Mesocritus auratus) were used to maintain L. amazonensis infections with the parasites passage every 6 to 8 weeks. BALB/c mice (female and male) supplied by the IFFA-CREDO, Lyon, France, and bred at the Instituto de Investigaciones en Ciencias de la Salud, Asuncion, Paraguay, were inoculated in the right hind footpad with 2 × 10^6 L. amazonensis amastigotes in 100 µL PBS obtained from donor hamsters. Disease progression was monitored by the measurement of lesion diameters for 7 to 12 weeks. […] Two days before the administration of the drug, the mice were randomly divided into groups of eight. […] The animals were euthanized two weeks after cessation of treatments to assess parasitological loads in the infected footpad. […] Following incubation at 27 °C for seven days, cultures were examined with an inverted microscope (Olympus, Tokyo, Japan) at a magnification of ×400. The number of parasites per gram in the lesion was calculated by the following equation: Parasite burden = geometric mean of the number of parasites in each duplicate/(number of microscope field counted × weight of lesion × (25,000) hemocytometer correction factor) [37]. […] Comparisons of parasite suppression in the infected footpads of the untreated and drug-treated groups were performed by Student’s t-test. One-way ANOVA (as a non-parametric statistical test) was also used on ranks.
Another data set deals with T. brucei. The data set is described as follows: Growth inhibition of T. brucei bloodstream form trypomastigotes (resazurin). Format: cell-based, Trypanosoma brucei brucei. To be noted: Trypanosoma brucei; Table 3, thiazolidene hydrazines; read-out: EC50 ± SD T. brucei. The method, then:
Compounds were dissolved in dimethylsulfoxide (DMSO).

Another data set deals with fibroblasts (NCTC929). The data set is described as follows: Cytotoxicity in fibroblasts. To be noted: NCTC-929, read-out: EC50 ± SD Fibroblasts. The format is cell-based. The text has this:
Table 5 Cytotoxicity and selectivity index of reference drugs and selected molecules. | column: EC50 ± SD (µM) ^a / Fibroblasts

The conditions of data set [13]: cited from earlier work.
Another data set relates to L. infantum amastigote. The data set is described as follows: Single dose study in the amastigote form of L. infantum. The format is cell-based. To be noted: Leishmania infantum, single dose 10 µM.
The conditions of data set [14]: cited from earlier work. This is another data set of the same source.
The conditions of data set [15]: mice, up and down test, cited from earlier work.
On the set-up of data set [16]: method as in PMID 24749923, PMID 26492824, PMID 25512408. The conditions noted are these: ref [13],[14],[15]; cited from earlier work.
The next data set relates to L. braziliensis. To be noted: Table 3, thiazolidene hydrazines; ref [13],[16],[19],[23],[25]; read-out: EC50 ± SD L. brazils; cited from earlier work.
Data set [17] can be described thus: Acute oral toxicity (up and down test). To be noted: mice.
Data set [18] concerns J774.1 murine macrophages. The data set is described as follows: Nonspecific cytotoxicity in murine macrophages (MTT). The conditions noted are these: Mus musculus, J774.1, read-out: EC50 ± SD MΦ.
Protocol: as §1
Data set [19] concerns T. cruzi. The conditions noted are these: cited from earlier work.
For data set [20], the system named is L. amazonensis. The data set is described as follows: Growth inhibition of L. amazonensis promastigotes (resazurin). The conditions noted are these: for Selectivity Index MΦ/L. amaz: EC50 mammalian cell line/EC50 L. amazonensis.
For the next data set, the system named is Candida albicans Biofilm. Further details: method as in Vila and Lopez-Ribot, 2017. The conditions noted are these: ref Vila and Lopez-Ribot, 2017; read-out: EC50 Candida albicans Biofilm Inhibitor; cited from earlier work.
In data set [21] the test system is L. infantum reference strain (MHOM/BR/2002/LPC-RPV). The conditions noted are these: cited from earlier work.
In data set [22] the test system is L. infantum veterinary isolate (MCAN_UY_2015_gPL8). To be noted: cited from earlier work.
Setting [23] is: read-out: EC50 L. infantum Reference.
The mark [24] stands for this setting: read-out: EC50 L. infantum Veterinary.
Setting [25] is: Table 3, thiazolidene hydrazines, ref [13],[16],[19],[23],[25], read-out: EC50 ± SD T. cruzi.

The EC50 is the concentration giving half of the maximal effect. In the case of `c1ccc(-c2nc(NC3CCCCC3)cc(C3CC3)n2)nc1` [MMV021013, N-Cyclohexyl-6-cyclopropyl-2-pyridin-2-ylpyrimidin-4-amine], the EC50 in data set [1] (ref Peña et al., 2015) was 0.8 µM; in the data set on P. falciparum (ref Ballell et al., 2013, read-out: EC50 P. falciparum) it was 0.7 µM; with T. b. brucei, 3.5 µM; in [2] (ref Peña et al., 2015, read-out: EC50 HepG2 human cell line), 400 µM; in data set [3] (setting [23]) it was 0.4 ± 0.1 µM; in data set [5] (setting [24]), 0.3 ± 0.1 µM. In the data set on T. cruzi [6], the EC50 was 1.7 µM. In [1] (ref [23],[24]), the “activity against the L. donovani form found in a mammalian host” value is recorded as “significant activity”. Moreover, the “Selectivity Index MΦ/Reference” value in data set [3] is over 125. In data set [4], this compound registered an EC50 at 48 h of over 50 µM. The “Selectivity Index MΦ/Veterinary” value in data set [5] was over 167.
Consider `COc1cccc(-n2nnnc2S(C)(=O)=O)c1` [MMV272144, 1-(3-Methoxyphenyl)-5-(methylsulfonyl)-1H-tetrazole], for which the EC50 in data set [7] is 1.3 µM; in data set [8] it was 10 µM; in the data set with C. albicans, 1.8 µM; in data set [10], 12.5 µM; on Replicative DNA helicase, 3.1 µM; in data set [3] (setting [23]), 2.4 ± 0.3 µM. Further, the EC50 is 15 µM in data set [11], 1.2 ± 0.1 µM in data set [5] (setting [24]) and 6.6 µM in the data set with Hsf1 protein. In addition, the in vivo absorption result in data set [9] is recorded as “low”. Also, the metabolic stability entry in [9] was “low”. Besides, in data set [3], the “Selectivity Index MΦ/Reference” value is listed as over 21. Moreover, the EC50 at 48 h in data set [4] is over 50 µM. The “Selectivity Index MΦ/Veterinary” value in [5] was over 42.
As usually defined, the inhibition is the drop in the measured response relative to a control, in per cent. Turning to `C=CCn1c(-c2ccc(Cl)cc2)cs\c1=N/N=C/C=C/c1ccco1` [Compound 266], the “diameter of the paw” value in the data set on L. amazonensis [12] is on record as “begins to decrease”. Moreover, the EC50 with T. brucei is 5 ± 1 µM; in the data set with fibroblasts (NCTC929), 405 ± 10 µM; in the data set with L. braziliensis it was 20 ± 2 µM; in data set [3] (read-out: EC50 ± SD Lin–Ref), 2 ± 0.2 µM; in data set [18], 60 ± 6 µM; in the data set on T. cruzi [19] (setting [25]), 1.6 ± 0.5 µM. The EC50 was over 0.25 µM in the data set on T. cruzi [19] (amastigotes, multiple strains, ref [13],[14],[15], read-out: EC50 in vitro anti-T. cruzi, amastigotes); 7 ± 1 µM in the data set with L. amazonensis [20] (Leishmania amazonensis, read-out: EC50 ± SD L. amaz); 9 ± 1 µM in [5] (read-out: EC50 ± SD Lin–Vet). Further, in data set [13] (previous works, ref [13],[16]), the “micronucleus test, genotoxicity” value is reported as “not genotoxic”. In addition, in data set [13] (ref [13],[14],[15]), the “Micronucleus test in mice (Genotoxicity)” value is “no”. This compound also gave an inhibition at 10 µM with L. infantum amastigote of 69%. In data set [14] (previous works, ref [13],[16]), the “AMES test, mutagenic capacity” value was “negative”. In data set [14] (ref [13],[14],[15]), the “Ames Test (mutagenicity)” value is “no”. Moreover, the “acute toxicity LD50” value in [15] (previously evaluated, ref [13],[16]) is on record as > 2000 mg/kg of weight. For the same compound, in data set [15] (ref [13],[14],[15]), the “Acute oral toxicity LD50” value was “LD50 > 2000 mg/kg in mice”. For the same compound, the “Stability in vitro (microsomal, plasma, other solutions)” value in data set [16] is “high”. Also, in data set [17], the “survival in the acute toxicity model in vivo” value was determined as 100%. For the same compound, the “Selectivity Index MΦ/Lin–Ref” value in data set [3] (EC50 mammalian cell line/EC50 L. infantum reference strain) was 30. Besides, in the data set on L. amazonensis [20], the “Selectivity Index MΦ/L. amaz” value worked out at 9. Besides, in data set [5], the “Selectivity Index MΦ/Lin–Vet” value was 7.
With `Cc1[nH]c2ccccc2c1[C@H](c1cccs1)N1CCN(C)CC1` [MMV688768, 2-Methyl-3-[(R)-(4-methylpiperazin-1-yl)-thiophen-2-ylmethyl]-1H-indole], the EC50 with Candida albicans Biofilm was 3.1 µM; in the data set on P. falciparum (ref Duffy et al., 2017, read-out: EC50 P. falciparum ABS activity), 4.7 µM; in the data set with T. b. brucei, 1.5 µM; in [2] (ref Vila and Lopez-Ribot, 2017, read-out: EC50 HepG2 cell line), 32 µM; in data set [3] (setting [23]), 9.8 ± 0.5 µM; in data set [5] (setting [24]) it was 6.8 ± 0.1 µM. Moreover, the “Selectivity Index MΦ/Reference” value in [3] is listed as over 5. The EC50 at 48 h in data set [4] is over 50 µM. In addition, the “Selectivity Index MΦ/Veterinary” value in [5] is over 7.
As to `CCCCCCCCCCCCCCCCOP(=O)([O-])OCC[N+](C)(C)C` [Miltefosine, reference compound], the EC50 in the data set on L. braziliensis was 5 ± 2 µM; in data set [21] (Miltefosine comparative data, ref [19], read-out: EC50 L. infantum Reference), 5.3 ± 0.1 µM; in data set [21] (Table 3, Miltefosine control, footnote f, ref [13],[16],[19],[23],[25], read-out: EC50 ± SD Lin–Ref) it was 5.3 ± 0.1 µM; in data set [22] (Miltefosine comparative data, ref [19], read-out: EC50 L. infantum Veterinary), 4.1 ± 0.1 µM; in data set [22] (Table 3, Miltefosine control, footnote f, ref [13],[16],[19],[23],[25], read-out: EC50 ± SD Lin–Vet), 4.1 ± 0.1 µM; in data set [18], 50 ± 7 µM. The EC50 in the data set on T. cruzi [19] (setting [25]) was 8 ± 2 µM. Also, in [3], the “Selectivity Index MΦ/Reference” value stood at 10. The compound also gave an EC50 at 48 h in data set [4] of 50 ± 7 µM. In the data set on L. amazonensis [20], the “Selectivity Index MΦ/L. amaz” value is reported as 10. Further, the “Selectivity Index MΦ/Veterinary” value in data set [5] turned out to be 12. Further, the “Selectivity Index MΦ/Lin–Vet” value in data set [5] worked out at 10.
